Square brackets hold non-standard residues; d marks the D form. Ends that are not written are not given here. Lys(Me3) = C[N+](C)(C)CCCC[C@H](N)C(=O)O
Key:
[1] = target: T1, KDM4E (Homo sapiens, UniProt B2RXH2); experiment: LC-MS demethylation activity assay, KDM4E; type: biochemical; conditions: room temperature; for substrate conversion (demethylation) by KDM4E / di-methylated product formed by KDM4E / mono-methylated product formed by KDM4E: 2 μM KDM4E, 10 μM peptide; for substrate conversion (demethylation) by KDM4E / KDM4E demethylation activity, T: 10 μM FAS, 100 μM LAA, 20 μM 2OG; for substrate conversion (demethylation) by KDM4E: HEPES pH 7.5, 2 h; for di-methylated product formed by KDM4E / mono-methylated product formed by KDM4E: standard conditions, 2 h; for KDM4E demethylation activity, T: 2 μM KDM, 10 μM H1/H3 peptide, 50 mM HEPES pH 7.5, 2 h, T (tri-) initial methylation state
T1 construct: KDM4DM1-L359,[39]; KDM4EM1-R336,[30]; His6 (N); made in house; host or cells: Escherichia coli
T1 sequence (B2RXH2 1-336): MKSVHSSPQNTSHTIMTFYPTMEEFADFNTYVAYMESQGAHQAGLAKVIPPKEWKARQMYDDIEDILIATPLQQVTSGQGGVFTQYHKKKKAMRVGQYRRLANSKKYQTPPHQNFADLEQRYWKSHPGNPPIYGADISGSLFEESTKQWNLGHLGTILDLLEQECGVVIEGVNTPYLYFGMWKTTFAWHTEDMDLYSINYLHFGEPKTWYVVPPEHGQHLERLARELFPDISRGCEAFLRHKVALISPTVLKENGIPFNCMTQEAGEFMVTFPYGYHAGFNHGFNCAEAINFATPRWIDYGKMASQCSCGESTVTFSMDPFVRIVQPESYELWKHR
Outline: (§1)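 H1 isoform peptides (10 μM) were incubated 2 h at room temperature with 2 μM recombinant N-terminally His6-tagged catalytic domains in 50 mM HEPES pH 7.5 containing FAS (10 μM), ascorbate (100 μM) and 2OG (20 μM). Reactions were quenched with formic acid (1% final), and demethylation was analysed by LC-MS (Q-TOF).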

[2] = test system: KDM5D; experiment: LC-MS demethylation activity assay, KDM5D; type: biochemical, human; conditions: 2 μM KDM, 10 μM H1/H3 peptide, 10 μM FAS, 100 μM LAA, 20 μM 2OG, 50 mM HEPES pH 7.5, 2 h, room temperature, T (tri-) initial methylation state
Outline: as §1

| Substance | substrate conversion (demethylation) by KDM4E [1] [%] | di-methylated product formed by KDM4E [1] [%] | mono-methylated product formed by KDM4E [1] [%] | KDM4E demethylation activity, T [1] | KDM5D demethylation activity, T [2] |
| --- | --- | --- | --- | --- | --- |
| KKKAAK[Lys(Me3)]AGGTPRKA [Peptide H1.2K26me3, 15-mer linker histone H1.2 residues 20-34 peptide, tri-methylated K26] | ~80 | ~50 | ~30 | ● [green] (green dots indicate good demethylation (>50% conversion)) | ● [red] |
| KKKAA[Lys(Me3)]KAGGTPRKA [Peptide H1.2K25me3, 15-mer linker histone H1.2 residues 20-34 peptide, tri-methylated K25] | ~80 | ~50 | ~30 | ● [red] | ● [red] |
| KKKAR[Lys(Me3)]SAGAAKRKA [Peptide H1.4K25me3, 15-mer linker histone H1.4 residues 20-34 peptide, tri-methylated K25] | ~95 | ~28 | ~67 | ● [red] | ● [red] |
| KKKATK[Lys(Me3)]AAGAGAAK [Peptide H1.5K26me3, 15-mer linker histone H1.5 residues 20-34 peptide, tri-methylated K26] |  | ~40 | ~16 | ● [green] (green dots indicate good demethylation (>50% conversion)) | ● [red] |
| KKKA[Lys(Me3)]KAGATAGKRK [Peptide H1.3K24me3, 15-mer linker histone H1.3 residues 20-34 peptide, tri-methylated K24] | ~80 | ~42 | ~38 | ● [green] (green dots indicate good demethylation (>50% conversion)) | ● [red] |

— paper PMC12363342, “Investigating the N-terminal linker histone H1 subtypes as substrates for JmjC lysine demethylases” (RSC Chemical Biology, 2025)
